Consider 8 molecules from paper PMC6005460, “Discovery of a novel potent peptide agonist to adiponectin receptor 1” (PLoS ONE, 2018).

Converted amounts (≈) assume the structure as drawn. Where a SMILES comes first, the peptide text is derived from it. Where no end group is shown, it is not given here. [ ]: non-standard residue; d: D form. Nva = CCC[C@H](N)C(=O)O Some results are limits rather than exact numbers.

For one data set, the target named is T1, AdipoR1-Δ88 (Homo sapiens, UniProt Q96A54).
T1 construct: made in house; host or cells: Sf9 insect cells (Bac-to-Bac baculovirus)
T1 sequence (Q96A54 89-375 limits assumed): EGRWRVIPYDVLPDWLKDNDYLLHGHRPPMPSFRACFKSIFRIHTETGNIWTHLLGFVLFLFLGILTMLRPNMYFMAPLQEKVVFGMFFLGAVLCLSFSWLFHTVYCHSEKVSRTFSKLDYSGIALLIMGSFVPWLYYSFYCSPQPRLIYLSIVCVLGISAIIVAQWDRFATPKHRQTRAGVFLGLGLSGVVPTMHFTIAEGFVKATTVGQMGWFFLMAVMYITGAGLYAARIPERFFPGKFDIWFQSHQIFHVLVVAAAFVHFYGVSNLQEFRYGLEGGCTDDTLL
The data set is described as follows: Surface plasmon resonance binding to immobilized AdipoR1-Δ88. The following applies: for SPR screening of designed peptides, selection: Biacore T-200, selected versus ADP355 by concentration-dependent signal increase, dissociation rate and estimated Kd, 25 candidate peptides. The procedure:
DNA gene fragment encoding AdipoR1 fused to an N-terminal flag tag was synthesized after codon optimization for insect cell expression (Integrated DNA Technologies). Full length AdipoR1 and AdipoR1-Δ88 were expressed in SF9 cell line using Bac-to-Bac Baculovirus system and purified following the procedure described by T. Tanabe et. al.. Briefly, 1 L SF9 cells infected with amplified baculovirus were cultured in SF-900 III SFM media (Thermo Fisher Scientific) for 3 days at 27°C. Harvested cells were disrupted by dounce homogenization, followed by centrifugation at 30,000 rpm for 2 hours. Collected raw membrane were washed with HEPES buffer and stored in -80°C after flash-freezing. Membranes were solubilized with 1% DDM (Anatrace) and recombinant AdipoR1-Δ88 was purified by using anti-flag tag antibody magnetic beads (Sigma). Eluted AdipoR1-Δ88 by flag peptide (Sigma) was further purified in 20 mM HEPES (pH7.4), 150 mM NaCl, 10% glycerol, 0.025% DDM, and 0.0001% CHS by Superdex 200 (GE Healthcare). The amount of purified AdipoR1-Δ88 was estimated by using Bradford staining.
In order to screen peptide library against AdipoR1, purified AdipoR1-Δ88 was immobilized onto S-series CM5 chip (GE Healthcare Life Science). Since AdipoR1-Δ88 was solubilized with a detergent-containing buffer solution, pH scouting solutions with various pH from 3.5 to 5.5 were prepared with the same detergent solution, 0.025% DDM and 0.0001% cholesteryl-hemi-succinate (CHS, Anatrace). At pH 5, AdipoR1-Δ88 was immobilized at around 4000 response unit using amine coupling method though EDC/NHS. After enough stabilization with running buffer consisting of 20 mM HEPES (pH7.4), 150 mM NaCl, 10% glycerol, 0.025% DDM, and 0.0001% CHS, serial concentrations from 1 to 100 μM were injected into reference and sample cells with 60-second contact time, 200-second dissociation time, and 30 μl/min flow rate at 4°C. The resulting sensorgrams were double-blanked by reference cell and buffer injection.

A further data set relates to AdipoRs. The following applies: previous studies; cited from earlier work.
Data set [1] has as its system AdipoR1-mediated AMPK activation (pAMPK Thr172) in differentiated C2C12 myotubes. The data set is described as follows: AMPK activation in differentiated C2C12 myotubes (Western blot). Format: cell-based, Mouse. The following applies: differentiated C2C12 myotubes, 0.8, 4 and 20 μM, in words. The procedure: (§1) Mouse C2C12 myoblasts (American Type Culture Collection) were maintained in Dulbecco’s modified Eagle’s medium (DMEM) supplemented with 10% FBS. C2C12 myotube was obtained by culturing myoblasts in DMEM containing 2% horse serum for at least 5 days with daily media change. On the fifth day, differentiation of cells could be confirmed by multinucleated contracted myotubes. C2C12 myotubes were then treated with selected peptide candidates at indicated concentrations for 30 minutes. As a positive control, 2 μg/ml recombinant human globular adiponectin and indicated concentrations of ADP355 were used.
(§2) Cell lysates were subjected to SDS-PAGE and western blot analysis. Briefly, cells were lysed with protein lysis buffer (RIPA, Thermo) followed by heat denaturation. Five micrograms of whole cell proteins were applied to SDS-PAGE. After electrophoresis, the proteins were transferred onto PVDF membrane, followed by membrane blocking in TBS-T buffer containing 5% non-fat dry milk for 1 hour at room temperature. The membrane was probed with the following different primary antibodies: anti-phosphorylated-AMPK (Thr172) (Cell Signaling), anti-tAMPK (Cell Signaling), anti-pACC, and anti-GAPDH (Santa-Cruz). […] Signals from Western blot were quantified by using Image Lab Software 6.0 (Bio-Rad).
(In general: In western blotting, separated proteins are transferred to a membrane and probed.)

A further data set can be described thus: Solubility of peptides. Type of data set: physicochemical.
In data set [2] the test system is acetyl Co-A carboxylase (ACC) phosphorylation in differentiated C2C12 myotubes. Description: ACC phosphorylation in differentiated C2C12 myotubes (Western blot). Type of data set: cell-based, Mouse. Conditions: PEGylated BHD1028, Western blot, in words. As for the experimental part:
as §1, §2

In data set [3] the target is T2, AdipoR1-Δ88 (adiponectin receptor 1 lacking the N-terminal 88 residues) (human, UniProt Q96A54 89-375).
T2 construct: Adiponectin receptor 1 (AdipoR1), human; N-terminal 88 residues deleted; gene synthesised, codon-optimised for insect cells; Kept in 0.025% DDM and 0.0001% CHS; The functional rows were done on mouse C2C12 or human HepG2 cells with their own AdipoR1; m1 stands there for AdipoR1; also called AdipR1-Δ88; source: SF9 cells (Bac-to-Bac baculovirus), solubilised with 1% DDM, purified (anti-flag …)
T2 sequence (looked up): T1 sequence (Q96A54 89-375 limits assumed)
Description: SPR; AdipoR1-Δ88 immobilised on CM5 chip by amine coupling at pH 5 (around 4000 RU); peptides 1 to 100 μM injected, 60 s contact, 200 s dissociation, 30 μl/min, 4°C; 20 mM HEPES pH 7.4, 150 mM NaCl, 10% glycerol, 0.025% DDM, 0.0001% CHS; Kd from saturation curves of responses at equilibrium. The following applies: both partners purified. (SPR reads the build-up and loss of mass on a sensor chip optically.)

In general, Kd refers to the free concentration of one partner at which half of the binding sites on the other are occupied at equilibrium, for simple one-to-one binding. Lower therefore signals a tighter complex. The solubility is the concentration that dissolves in the medium under given conditions.

As to `CCC[C@H](NC(=O)[C@@H]1CCCN1C(=O)[C@@H](NC(=O)[C@H](N)CC(N)=O)[C@@H](C)CC)C(=O)N[C@@H](CC(C)C)C(=O)N[C@@H](Cc1ccc(O)cc1)C(=O)N[C@H](CO)C(=O)N[C@@H](Cc1ccccc1)C(=O)N[C@@H](C)C(=O)N[C@H](CO)C(N)=O` [ADP355, reference compound] (H-[dN]IP[Nva]LY[dS]FA[dS]-NH2), at AdipoR1-Δ88 (SPR, AdipoR1-Δ88 amine-coupled on CM5 chip, 1 to 100 μM peptide, 4°C, 20 mM HEPES pH7.4, 0.025% DDM, 0.0001% CHS, from saturation curves with responses at equilibrium state), the Kd was above 100 µM. Further, the SPR response entry on AdipoR1-Δ88 (SPR, AdipoR1-Δ88 on CM5 chip, serial concentrations 1 to 100 μM, in words) is “very weak SPR responses except 100 μM concentration”. Also, the cellular efficacy entry in the data set with AdipoRs is on record as “nano molar concentration”.
Take `CC[C@H](C)[C@H](NC(=O)[C@H](CC(N)=O)NC(=O)[C@@H]1CCCN1C(=O)[C@H](Cc1c[nH]cn1)NC(=O)[C@H](Cc1ccc(O)cc1)NC(=O)[C@H](C)NC(=O)[C@H](Cc1ccccc1)NC(=O)[C@H](Cc1ccc(O)cc1)NC(=O)[C@@H](N)Cc1c[nH]c2ccccc12)C(=O)N1CCC[C@H]1C(=O)NCC(=O)N[C@@H](CC(C)C)C(=O)N[C@@H](Cc1c[nH]c2ccccc12)C(=O)N[C@@H](Cc1ccc(O)cc1)C(=O)N[C@@H](Cc1ccccc1)C(=O)O` [BHD43] (H-WYFAYHPNIPGLWYF-OH): the “SPR screening of designed peptides, selection” value (from here on “SPR screening … selection”) on AdipoR1-Δ88 is “preliminarily selected”. The AMPK activation entry in data set [1] is “activated AMPK in a concentration-dependent manner”.
For `CC[C@H](C)[C@H](NC(=O)[C@H](CC(N)=O)NC(=O)[C@@H]1CCCN1C(=O)[C@H](Cc1c[nH]cn1)NC(=O)[C@H](Cc1ccc(O)cc1)NC(=O)[C@H](C)NC(=O)[C@H](Cc1ccccc1)NC(=O)[C@H](Cc1ccc(O)cc1)NC(=O)[C@@H](N)Cc1ccccc1)C(=O)N1CCC[C@H]1C(=O)NCC(=O)N[C@@H](CC(C)C)C(=O)N[C@@H](Cc1ccccc1)C(=O)N[C@@H](Cc1ccc(O)cc1)C(=O)N[C@@H](Cc1ccccc1)C(=O)O` [BHD44] (H-FYFAYHPNIPGLFYF-OH), the “SPR screening … selection” value on AdipoR1-Δ88 was “preliminarily selected”. Moreover, the AMPK activation result in data set [1] was “activated AMPK in a concentration-dependent manner”.
As to `CC[C@H](C)[C@H](NC(=O)[C@H](CC(N)=O)NC(=O)[C@@H]1CCCN1C(=O)[C@H](Cc1c[nH]cn1)NC(=O)[C@H](Cc1ccc(O)cc1)NC(=O)[C@H](C)NC(=O)[C@H](Cc1ccccc1)NC(=O)[C@H](Cc1ccc(O)cc1)NC(=O)[C@@H](N)Cc1ccc(O)cc1)C(=O)N1CCC[C@H]1C(=O)NCC(=O)N[C@@H](CC(C)C)C(=O)N[C@@H](Cc1ccc(O)cc1)C(=O)N[C@@H](Cc1ccc(O)cc1)C(=O)N[C@@H](Cc1ccccc1)C(=O)O` [BHD1028] (H-YYFAYHPNIPGLYYF-OH), in the data set “Solubility of peptides” (DMSO), the “solubility in DMSO” value amounted to 100 mM (≈ 193 mg/mL). The solubility in the data set “Solubility of peptides” (aqueous buffer, PBS buffer pH 7.4, unmodified peptide) was at most 0.05 mM. Also, at AdipoR1-Δ88, the “SPR screening … selection” value was “preliminarily selected”. In addition, the “dissociation in the SPR sensorgram” value at AdipoR1-Δ88 (among screened peptides, in words) was “slowest dissociation”.
For “PEGylated BHD1028: BHD1028 N-terminally mono-PEGylated with 5000 Da polyethylene glycol ({PEG 5000 Da}-YYFAYHPNIPGLYYF)”, the “solubility after PEGylation” value in the data set “Solubility of peptides” (modified with 5000 Da of PEG, in words) is recorded as “much enhanced solubility”. For the same molecule, the “ACC activation, concentration dependence” value in data set [2] is “concentration dependent”.

B1: BHD1028 (peptide)
peptide: YYFAYHPNIPGLYYF
notes: designed 15-mer, adiponectin-mimetic; free N- and C-termini as printed (NH2-...-COOH); also called BHD31; source: synthetic peptide (AnyGen Ltd.)
The molecule B1 had a Kd in data set [3] of 16 µM.

B2: BHD43 (peptide)
peptide: WYFAYHPNIPGLWYF
notes: designed 15-mer, adiponectin-mimetic; free N- and C-termini as printed (NH2-...-COOH); source: synthetic peptide (AnyGen Ltd.)
The molecule B2 displayed a Kd in data set [3] of 10 µM.

B3: BHD44 (peptide)
peptide: FYFAYHPNIPGLFYF
notes: as for B2
Take B3: binding in data set [3] was put at a Kd of 4.3 µM.
